For the experiment, the system named is HBsAg. Put plainly: HBsAg assay (chemiluminescence immunoassay of secreted HBsAg in HepG2.2.15 culture supernatant). It is filed as cell-based, HBV. To be noted: HBsAg secretion reduced by 50% vs no drug control, HepG2.2.15 cells, CLIA kit. As for the experimental part:
HepG2.2.15 cells (Acs et al. Proc Natl Acad Sci USA, 84, (1987), 4641-4), a constitutively HBV-expressing cell line were cultured in DMEM+Glutamax-I medium (Invitrogen, Carlsbad, Calif., USA), supplemented with 10% fetal bovine serum (Invitrogen) and G418 (Invitrogen) at a final concentration of 200 mg/L and maintained in 5% CO2 at 37° C.
HepG2.2.15 cells were seeded in duplicate into white, 96-well plates at 1.5×10^4 cells/well. The cells were treated with a three-fold serial dilution series of the compounds in DMSO. The final DMSO concentration in all wells was 1% and DMSO was used as no drug control.
The HBsAg chemiluminescence immunoassay (CLIA) kit (Autobio Diagnostics Co., Zhengzhou, China, Catalog number: CL0310-2) was used to measure the levels of secreted HBV antigens semi-quantitatively. For the detection 50 μL/well culture supernatant was used and HBsAg was quantified using HBsAg chemiluminescence immunoassay (CLIA) kit (Autobio Diagnostics Co., Zhengzhou, China, Catalog number: CL0310-2), 50 μL of the supernatant was transferred to the CLIA assay plate and 50 μL of enzyme conjugate reagent was added into each well. The plates were sealed and gently agitated for 1 hour at room temperature. The supernatant-enzyme-mixture was discarded and wells were washed 6 times with 300 μL of PBS. The residual liquid was removed by plating the CLIA plate right side down on absorbent tissue paper. 25 μL of substrates A and B were added to each well. Luminance was measured using a luminometer (Mithras LB 940 Multimode Microplate Reader) after 10 minutes incubation. Dose-response curves were generated and the IC50 value was extrapolated by using the E-WorkBook Suite (ID Business Solutions Ltd., Guildford, UK).
The compounds of the present invention were tested for their capacity to inhibit HBsAg as described herein.

Structures can show the parent of a compound that is named as a salt.

The record followed here is US9458153B2, “Dihydroquinolizinones for the treatment and prophylaxis of hepatitis B virus infection” (Hoffmann-La Roche Inc., priority 2014, dated 2016).

Compound `COc1cc2c(cc1OC)-c1cc(=O)c(C(=O)O)cn1C(C)C2` (single isomer, unassigned; (-)) [Example 68, (−)-9,10-dimethoxy-6-methyl-2-oxo-6,7-dihydrobenzo[a]quinolizine-3-carboxylic acid] registered an IC50 of 5670 nM.
`CCCOc1cc2c(cc1OC)-c1cc(=O)c(C(=O)O)cn1C(CC)C2` (single isomer, unassigned; (-)) [Example 80, (−)-6-ethyl-10-methoxy-2-oxo-9-propoxyl-6,7-dihydrobenzo[a]quinolizine-3-carboxylic acid] came in with an IC50 of 190 nM.
Compound `CCC1Cc2cc(OC)c(C3CC3)cc2-c2cc(=O)c(C(=O)O)cn21` (single isomer, unassigned; (-)) [Example 91, (−)-10-cyclopropyl-6-ethyl-9-methoxy-2-oxo-6,7-dihydrobenzo[a]quinolizine-3-carboxylic acid] returned an IC50 of 500 nM.
The same measure, in the same setting: with `COc1cc2c(cc1OC)-c1cc(=O)c(C(=O)O)cn1C(C(C)C)C2` (single isomer, unassigned; (-)) [Example 100, (−)-6-isopropyl-9,10-dimethoxy-2-oxo-6,7-dihydrobenzo[a]quinolizine-3-carboxylic acid] the figure was 5400 nM.
In turn, `COc1cc2c(cc1OC)-c1cc(=O)c(C(=O)O)cn1C(CC(C)C)C2` (single isomer, unassigned; (-)) [Example 103, (−)-6-isobutyl-9,10-dimethoxy-2-oxo-6,7-dihydrobenzo[a]quinolizine-3-carboxylic acid] showed an IC50 of 3420 nM. Compared with the last compound, the IC50 is about 1.6-fold lower.
`COCCOc1cc2c(cc1Cl)-c1cc(=O)c(C(=O)O)cn1C(CC(C)C)C2` (single isomer, unassigned; (-)) [Example 106, (−)-10-chloro-6-isobutyl-9-(2-methoxyethoxy)-2-oxo-6,7-dihydrobenzo[a]quinolizine-3-carboxylic acid] displayed an IC50 of 7310 nM. This IC50 is about 2.1-fold higher than that of the compound before.
`COCCOc1cc2c(cc1Cl)-c1cc(=O)c(C(=O)O)cn1C(C(C)C)C2` (single isomer, unassigned; (-)) [Example 109, (−)-10-chloro-6-isopropyl-9-(2-methoxyethoxy)-2-oxo-6,7-dihydrobenzo[a]quinolizine-3-carboxylic acid]: half-maximal inhibition (IC50) was put at 61 nM.
`CCC1Cc2cc(OCc3ccccc3)c(C)cc2-c2cc(=O)c(C(=O)O)cn21` (single isomer, unassigned; (-)) [Example 117, (−)-9-benzyloxy-6-ethyl-10-methyl-2-oxo-6,7-dihydrobenzo[a]quinolizine-3-carboxylic acid]: the IC50 was found to be 910 nM.
The compound `COCCCOc1cc2c(cc1Cl)-c1cc(=O)c(C(=O)O)cn1C(C(C)C)C2` (single isomer, unassigned; (-)) [Example 122, (−)-10-chloro-6-isopropyl-9-(3-methoxypropoxy)-2-oxo-6,7-dihydrobenzo[a]quinolizine-3-carboxylic acid] gave an IC50 of 690 nM.
`COc1cc2c(cc1OCC(F)(F)F)CC(C(C)C)n1cc(C(=O)O)c(=O)cc1-2` (single isomer, unassigned; (-)) [Example 128, (−)-6-isopropyl-10-methoxy-2-oxo-9-(2,2,2-trifluoroethoxy)-6,7-dihydrobenzo[a]quinolizine-3-carboxylic acid] registered an IC50 of 670 nM.
Same read-out and setting: with `COCCOc1cc2c(cc1OC)-c1cc(=O)c(C(=O)O)cn1C(C(C)C)C2` (single isomer, unassigned; (-)) [Example 130, (−)-6-isopropyl-10-methoxy-9-(2-methoxyethoxy)-2-oxo-6,7-dihydrobenzo[a]quinolizine-3-carboxylic acid] the figure was 1540 nM; with `COCCCOc1cc2c(cc1OC)-c1cc(=O)c(C(=O)O)cn1C(C(C)(C)C)C2` (single isomer, unassigned; (-)) [Example 133, (−)-6-tert-butyl-10-methoxy-9-(3-methoxypropoxy)-2-oxo-6,7-dihydrobenzo[a]quinolizine-3-carboxylic acid], 330 nM.
Compound `COCCOc1cc2c(cc1OC)-c1cc(=O)c(C(=O)O)cn1C(C1(C)CC1)C2` (single isomer, unassigned; (-)) [Example 136, (−)-10-methoxy-9-(2-methoxyethoxy)-6-(1-methylcyclopropyl)-2-oxo-6,7-dihydrobenzo[a]quinolizine-3-carboxylic acid] came in with an IC50 of 400 nM.
In turn, `COCCCOc1cc2c(c(Cl)c1F)-c1cc(=O)c(C(=O)O)cn1C(C(C)C)C2` (single isomer, unassigned; (-)) [Example 139, (−)-11-chloro-10-fluoro-6-isopropyl-9-(3-methoxypropoxy)-2-oxo-6,7-dihydrobenzo[a]quinolizine-3-carboxylic acid] displayed an IC50 of 129 nM. This IC50 is about 3.1-fold lower than that of the compound before.
The compound `COc1cc2c(cc1OCC(F)F)CC(C(C)C)n1cc(C(=O)O)c(=O)cc1-2` (single isomer, unassigned; (-)) [Example 143, (−)-9-(2,2-difluoroethoxy)-6-isopropyl-10-methoxy-2-oxo-6,7-dihydrobenzo[a]quinolizine-3-carboxylic acid] returned an IC50 of 190 nM.
In the case of `COc1cc2c(cc1OCC(C)(C)CO)CC(C(C)C)n1cc(C(=O)O)c(=O)cc1-2` (single isomer, unassigned; (-)) [Example 146, (−)-9-(3-hydroxy-2,2-dimethyl-propoxy)-6-isopropyl-10-methoxy-2-oxo-6,7-dihydrobenzo[a]quinolizine-3-carboxylic acid], the IC50 worked out at 520 nM.
Turning to `COc1cc2c(cc1OCC(C)(C)CO)CC(C(C)(C)C)n1cc(C(=O)O)c(=O)cc1-2` (single isomer, unassigned; (-)) [Example 151, (−)-6-tert-butyl-9-(3-hydroxy-2,2-dimethyl-propoxy)-10-methoxy-2-oxo-6,7-dihydrobenzo[a]quinolizine-3-carboxylic acid], the concentration for half-maximal inhibition (IC50) amounted to 160 nM.
For `COc1cc2c(cc1OCCCCCO)CC(C(C)(C)C)n1cc(C(=O)O)c(=O)cc1-2` (single isomer, unassigned; (-)) [Example 154, (−)-6-tert-butyl-9-(5-hydroxypentoxy)-10-methoxy-2-oxo-6,7-dihydrobenzo[a]quinolizine-3-carboxylic acid], the IC50 amounted to 120 nM. This IC50 and that of the compound before are within 1.5-fold of each other.
With `COc1cc2c(cc1OCCCCCCO)CC(C(C)(C)C)n1cc(C(=O)O)c(=O)cc1-2` (single isomer, unassigned; (-)) [Example 157, (−)-6-tert-butyl-9-(6-hydroxyhexoxy)-10-methoxy-2-oxo-6,7-dihydrobenzo[a]quinolizine-3-carboxylic acid], inhibition was half-maximal at 170 nM (IC50). This IC50 and that of the compound before are within 1.5-fold of each other.
In turn, `COc1cc2c(cc1OCCCCCCNC(=O)OC(C)(C)C)CC(C(C)(C)C)n1cc(C(=O)O)c(=O)cc1-2` (single isomer, unassigned; (-)) [Example 163, (−)-9-[6-(tert-butoxycarbonylamino)hexoxy]-6-tert-butyl-10-methoxy-2-oxo-6,7-dihydrobenzo[a]quinolizine-3-carboxylic acid] returned an IC50 of 350 nM.
For the setting “hydrochloride”, `COc1cc2c(cc1OCCCCCCN)CC(C(C)(C)C)n1cc(C(=O)O)c(=O)cc1-2` (single isomer, unassigned; (-)) [Example 165, (−)-9-(6-aminohexoxy)-6-tert-butyl-10-methoxy-2-oxo-6,7-dihydrobenzo[a]quinolizine-3-carboxylic acid hydrochloride] returned an IC50 of 1550 nM.
In turn, `COc1cc2c(cc1OCCCCCCCCNC(=O)OC(C)(C)C)CC(C(C)(C)C)n1cc(C(=O)O)c(=O)cc1-2` (single isomer, unassigned; (-)) [Example 169, (−)-9-[8-(tert-butoxycarbonylamino)octoxy]-6-tert-butyl-10-methoxy-2-oxo-6,7-dihydrobenzo[a]quinolizine-3-carboxylic acid] displayed an IC50 of 190 nM.
`COc1cc2c(cc1OCCCCCCCCN)CC(C(C)(C)C)n1cc(C(=O)O)c(=O)cc1-2` (single isomer, unassigned; (-)) [Example 171, (−)-9-(8-aminooctoxy)-6-tert-butyl-10-methoxy-2-oxo-6,7-dihydrobenzo[a]quinolizine-3-carboxylic acid hydrochloride] gave an IC50 (hydrochloride) of 420 nM.
Regarding `COc1cc2c(cc1OCCCCCN)CC(C(C)(C)C)n1cc(C(=O)O)c(=O)cc1-2` (single isomer, unassigned; (-)) [Example 174, (−)-9-(5-aminopentoxy)-6-tert-butyl-10-methoxy-2-oxo-6,7-dihydrobenzo[a]quinolizine-3-carboxylic acid hydrochloride], for the setting “hydrochloride”, the IC50 is 2420 nM.
`COc1cc2c(cc1OCCCSC)CC(C(C)(C)C)n1cc(C(=O)O)c(=O)cc1-2` (single isomer, unassigned; (-)) [Example 185, (−)-6-tert-butyl-10-methoxy-9-(3-methylsulfanylpropoxy)-2-oxo-6,7-dihydrobenzo[a]quinolizine-3-carboxylic acid] yielded an IC50 of 55 nM.
